From US10898542B2, “Topical compositions comprising OB-fold variants” (AFFILOGIC, priority 2013, dated 2021)
One block for each molecule: values may come before it.

Assays:
[1] = Franz cell diffusion test, penetration through human skin ex vivo; assay type: in vitro ADME; settings: human skin 1 mm, 100 μl at 5 mg/ml, 24 h, PBS pH 7.4 receiver, 2 cm^2
Source text: The test used is the Franz cell diffusion test.
Franz cells are used to determine, ex vivo, the skin penetration of exogenous substances, and to actually measure the speed of passage through the various layers of the skin barrier of the molecules constituting the active ingredient deposited at the surface of the skin.
A solution containing the molecule to be studied is deposited in a “donor” department of the device. The molecule then diffuses through a membrane (in the case in point the skin) and is collected in a “receiver” compartment.
In practice, after having removed the hypodermal layer (adipose tissue), the skin fragment is deposited on a diffusion cell, called a Franz cell. The deep face of the dermis is in contact with a receiver solution which is supposed to replace the interstitial fluid of the skin. A solution containing the molecule studied is deposited on top of the skin. […]
The nanofitin concentration was measured on each of the samples taken, using the BioLayer Interferometry technology which makes it possible to measure the interaction between two proteins. In the case in point, the nanofitin content is measured by the recognition of a poly-Histidine tag which is coupled to said nanofitins beforehand.

[2] = tested on: skin inflammation similar to psoriasis caused by imiquimod (Aldara); test: Imiquimod-induced psoriasis-type ear inflammation, topical treatment, PASI score; assay type: in vivo, Balb/c mice; settings: cream on right ear; mice licked their ears, systemic effect after ingestion very probable
Method: In order to verify the skin penetration of nanofitins and the preservation of their properties, in particular their property of neutralizing the receptor-ligand relationship, inflammation models of psoriasis type were used and the reduction in inflammation (PASI score) after topical administration of anti-inflammatory nanofitins directly to the skin was measured.
These nanofitins target two different cytokines involved in psoriasiform inflammation, but with different localizations, from the basal layers of the dermis just into the epidermis (Nestle et al., Nature Reviews Immunology 9, 679-691, 2009). The nanofitins in question neutralize the binding of the targeted cytokines with their receptor. In order to inhibit the action of these cytokines during inflammation of psoriasis type, it is necessary to reach the layers where they are located, either systemically as therapeutic antibodies do, or topically via the skin. The measurement of an anti-inflammatory effect by topical administration of nanofitins thus attests to penetration of the nanofitins through the skin and to an associated therapeutic efficacy.
The local application of imiquimod (Aldara) to the internal face of the ears of mice causes a skin inflammation similar to psoriasis (Van der Fits et al., J Immunol. 2009 May 1; 182(9):5836-45, Flutter et al., Eur J Immunol. 2013 December; 43(12):3138-46). […]

[3] = Penetration through rabbit cornea in reaction chambers; assay type: in vitro ADME; settings: male, Fauve de Bourgogne, 37° C., sampling 0 h, 2 h and 4 h, 0.5 cm^2, read-out: apparent permeability
Method: Three male rabbits (Fauve de Bourgogne) were used.
The principle is the same as for the skin permeability.
3 ml of formulation containing each nanofitin were placed on the donor side of the reaction chambers and 3 ml of PBS were placed on the receiver side. Freshly taken corneal tissues were placed between the two half-chambers.
The temperature was maintained at 37° C. throughout the study and the oxygenation was provided by continuous perfusion of carbogen (95% O2, 5% CO2). The exchange surface area was 0.5 cm^2.
At each following sampling period: 0 h, 2 h and 4 h, 500 μl of liquid were taken from the receiver side and replaced with PBS. • 100 μl of liquid were taken from the donor side and were not replaced.
At the end of the sampling period, the 0.5 cm^2 of corneas were removed from the reaction chamber and scraped with a scalpel. 1 ml of PBS was added to the samples, which were homogenized.

Structure (SMILES): Cn1c(=O)c2c(ncn2C)n(C)c1=O [caffeine]
percentage found on the receiver side (skin permeability) [1]: ~10%

Structure (SMILES): C[C@H]1C[C@H]2[C@@H]3CCC4=CC(=O)C=C[C@]4(C)[C@@]3(F)[C@@H](O)C[C@]2(C)[C@@]1(O)C(=O)CCl [clobetazole]
inflammation on the nontreated left ear [2]: reduction in the inflammation on the nontreated left ear

Papp at 4 h [3]: 11 ×10⁻⁶ cm/s
Structure (SMILES): CCn1cc(C(=O)O)c(=O)c2cc(F)c(N3CCNCC3)cc21 [norfloxacin]
